Read-outs that look alike come from different tables or passages of the source.

We go through 11 molecules from US8815849B2, “Hetero-bicyclic derivatives as HCV inhibitors” (Janssen R&D Ireland, priority 2010, dated 2014).

In series [1] the test system is HCV replicon (Huh-Luc cells, NS3-NS5B regions of HCV type 1b). The experiment in a line: HCV replicon assay (Huh-7 luc/neo, luciferase readout). It is filed as cell-based. The settings on record: Huh-Luc replicon cells, three days incubation, luciferase activity, average if tested more than once, read-out: HCV-REP-HUH7LUC_EC50. An excerpt: The in vitro antiviral activity against HCV of the compounds of formula I can be tested in a cellular HCV replicon system based on Lohmann et al. (1999) Science 285:110-113, with the further modifications described by Krieger et al. (2001) Journal of Virology 75: 4614-4624 (incorporated herein by reference), which is further exemplified in the examples section. This model, while not a complete infection model for HCV, is widely accepted as the most robust and efficient model of autonomous HCV RNA replication currently available. It will be appreciated that it is important to distinguish between compounds that specifically interfere with HCV functions from those that exert cytotoxic or cytostatic effects in the HCV replicon model, and as a consequence cause a decrease in HCV RNA or linked reporter enzyme concentration. Assays are known in the field for the evaluation of cellular cytotoxicity based for example on the activity of mitochondrial enzymes using fluorogenic redox dyes such as resazurin. Furthermore, cellular counter screens exist for the evaluation of non-selective inhibition of linked reporter gene activity, such as firefly luciferase. Appropriate cell types can be equipped by stable transfection with a luciferase reporter gene whose expression is dependent on a constitutively active gene promoter, and such cells can be used as a counter-screen to eliminate non-selective inhibitors.
The compounds of formula (I) were examined for inhibitory activity in the HCV replicon. This cellular assay is based on a bicistronic expression construct, as described by Lohmann et al. (1999) Science vol. 285 pp. 110-113 with modifications described by Krieger et al. (2001) Journal of Virology 75: 4614-4624, in a multi-target screening strategy.
The assay utilized the stably transfected cell line Huh-7 luc/neo (hereafter referred to as Huh-Luc). This cell line harbors an RNA encoding a bicistronic expression construct comprising the wild type NS3-NS5B regions of HCV type 1b translated from an
Internal Ribosome Entry Site (IRES) from encephalomyocarditis virus (EMCV), preceded by a reporter portion (FfL-luciferase), and a selectable marker portion (neo^R, neomycine phosphotransferase). The construct is flanked by 5′ and 3′ NTRs (non-translated regions) from HCV type 1b. Continued culture of the replicon cells in the presence of G418 (neo^R) is dependent on the replication of the HCV RNA. The stably transfected replicon cells that express HCV RNA, which replicates autonomously and to high levels, encoding inter alia luciferase, were used for screening the antiviral compounds.
The replicon cells were plated in 384 well plates in the presence of the test and control compounds which were added in various concentrations. Following an incubation of three days, HCV replication was measured by assaying luciferase activity (using standard luciferase assay substrates and reagents and a Perkin Elmer ViewLux™ ultraHTS microplate imager). Replicon cells in the control cultures have high luciferase expression in the absence of any inhibitor. The inhibitory activity of the compound on luciferase activity was monitored on the Huh-Luc cells, enabling a dose-response curve for each test compound. EC50 values were then calculated, which represent the amount of compound required to decrease the level of detected luciferase activity by 50%, or more specifically, to reduce the ability of the genetically linked HCV replicon RNA to replicate.
Where a compound of formula (I) was tested more than once in the replicon assay, the average of all test results is given in this Table 1.

In series [2] the test system is LLC-MDR1 monolayers. It is filed as in vitro ADME. The note with it: pig, LLC-PK1, 120 min. As for the experimental part: Assay Description for the Measurement of Transepithelial Transport of Test Compounds Through LLC-MDR1 Monolayers
The integrity of the cellular monolayer was assessed in each incubation well through the inclusion of the fluorescent, low permeability marker compound, Fluorescein.
In detail, LLC-MDR1 cells (LLC-PK1 cells stably transduced with MDR1 in a trans-well system) were seeded on 24-well cell culture inserts (Millicell®-PCF, 0.4 μm, 13 mm Ø, 0.7 cm^2) at 400 000 cells/cm^2. Cell culture medium consists of Medium 199 supplemented with 10% Fetal Bovine Serum (FBS) and 100 U/mL Penicillin/streptomycin and was replaced the day after seeding and the day before the experiment. The transport experiment was performed 5 days after seeding. On the day of the experiment, solutions of the test compounds were applied to the apical side of the monolayers to assess transport in the AtoB direction,. The medium used in the assay was (OPTI-MEM (1×) (GIBCO) with 1 w/v % Bovine Serum Albumin. Inserts were incubated at 37° C. in a humidified incubator containing 5% CO2. Samples from the acceptor and donor compartments were collected after an incubation time of 120 min, to assess the permeability and to allow estimation of the test compound recovery during the experiment, respectively. Transport experiments were performed in triplicate. Absolute test compound concentrations were measured using LC-MS/MS and quantified via a calibration curve.

Consider `COC(=O)N[C@H](C(=O)N1CCCC1c1[nH]c2cc(-c3ccc4cc(-c5cnc([C@@H]6CCCN6C(=O)[C@@H](NC(=O)OC)C(C)C)[nH]5)ccc4c3)ccc2c(=O)c1F)C(C)C` (single isomer, unassigned) [Compound 110b], for which the EC50 in series [1] turned out to be 0.48 nM. The “A->B permeability (Papp × 10^−6 cm/sec) in the presence the P-gp inhibitor GF120918” value in series [2] is 2.3 10^−6 cm/sec.

Consider `COC(=O)N[C@H](C(=O)N1CCC[C@H]1C1=Nc2cc(-c3ccc4cc(-c5cnc([C@@H]6CCCN6C(=O)[C@@H](NC(=O)OC)C(C)C)[nH]5)ccc4c3)ccc2C2(COC2)N1)C(C)C` [Compound 70], for which the EC50 in series [1] (Hepatitis C virus, Huh-7, 72 h) came out at 0.009 nM. In series [2], the “A->B permeability (Papp × 10^−6 cm/sec) in the presence the P-gp inhibitor GF120918” value is recorded as 7.8 10^−6 cm/sec. With `COC(=O)N[C@H](C(=O)N1CCC[C@H]1C1=NS(=O)(=O)c2ccc(-c3ccc4cc(-c5cnc([C@@H]6CCCN6C(=O)[C@@H](NC(=O)OC)C(C)C)[nH]5)ccc4c3)cc2N1)C(C)C` [Compound 84], the EC50 in series [1] (Hepatitis C virus, Huh-7, 72 h) is 0.034 nM. Besides, the “A->B permeability (Papp × 10^−6 cm/sec) in the presence the P-gp inhibitor GF120918” value in series [2] was 0.4 10^−6 cm/sec. For `CC[C@H](C)[C@H](NC(=O)OC)C(=O)N1CCCC1c1cc(=O)c2ccc(-c3ccc4cc(-c5cnc([C@@H]6CCCN6C(=O)[C@@H](NC(=O)OC)C(C)C)[nH]5)ccc4c3)cc2[nH]1` (stereo partly drawn) [Compound 13-A3], the “A->B permeability (Papp × 10^−6 cm/sec) in the presence the P-gp inhibitor GF120918” value in series [2] was 0.9 10^−6 cm/sec.

For `COC(=O)N[C@H](C(=O)N1CCCCC1c1cc(=O)c2ccc(-c3ccc4cc(-c5cnc([C@@H]6CCCN6C(=O)[C@@H](NC(=O)OC)C(C)C)[nH]5)ccc4c3)cc2[nH]1)C(C)C` (stereo partly drawn) [Compound 76], the EC50 in series [1] (Hepatitis C virus, Huh-7, 72 h) turned out to be 0.034 nM. For the same molecule, the “A->B permeability (Papp × 10^−6 cm/sec) in the presence the P-gp inhibitor GF120918” value in series [2] is 3.1 10^−6 cm/sec. Consider `COC(=O)N[C@H](C(=O)N1CCC[C@H]1c1ncc(-c2ccc3cc(-c4ccc5c(=O)[nH]c([C@@H]6CCCN6C(=O)[C@H](NC(=O)OC(C)(C)C)c6ccccc6)nc5c4)ccc3c2)[nH]1)C(C)C` [Compound 44-1], for which, in series [1] (Hepatitis C virus, Huh-7, 72 h), the EC50 amounted to 8.1 nM. Besides, the “A->B permeability (Papp × 10^−6 cm/sec) in the presence the P-gp inhibitor GF120918” value in series [2] is 2.7 10^−6 cm/sec. For `COC(=O)N[C@H](C(=O)N1CCCC1c1[nH]c2cc(-c3ccc4cc(-c5cnc([C@@H]6CCCN6C(=O)[C@@H](NC(=O)OC)C(C)C)[nH]5)ccc4c3)ccc2c(=O)c1F)C(C)C` (single isomer, unassigned) [Compound 110a], the EC50 in series [1] worked out at 0.048 nM. Besides, the “A->B permeability (Papp × 10^−6 cm/sec) in the presence the P-gp inhibitor GF120918” value in series [2] was 0.4 10^−6 cm/sec. As to `COC(=O)N[C@H](C(=O)N1CCCC1c1cc(=O)c2ccc(-c3ccc4cc(-c5cnc([C@@H]6CCCN6C(=O)[C@@H](NC(=O)OC)C(C)C)[nH]5)ccc4c3)cc2[nH]1)C(C)C` (single isomer, unassigned) [Compound 13b], the EC50 in series [1] (Hepatitis C virus, Huh-7, 72 h) worked out at 0.022 nM. Also, the “A->B permeability (Papp × 10^−6 cm/sec) in the presence the P-gp inhibitor GF120918” value in series [2] is listed as 0.5 10^−6 cm/sec. For `COC(=O)N[C@H](C(=O)N1CCCC1c1[nH]c2cc(-c3ccc4cc(-c5cnc([C@@H]6CCCN6C(=O)[C@@H](NC(=O)OC)C(C)C)[nH]5)ccc4c3)ccc2c(=O)c1C)C(C)C` (single isomer, unassigned) [Compound 102a], in that order: 0.069 nM and <0.6 10^−6 cm/sec. For the molecule `COC(=O)N[C@H](C(=O)N1CCC[C@H]1c1ncc(-c2ccc3cc(-c4ccc5nc([C@@H]6CCCN6C(=O)[C@@H](NC(=O)OC)C(C)C)[nH]c(=O)c5c4)ccc3c2)[nH]1)C(C)C` [Compound 35], the EC50 in series [1] (Hepatitis C virus, Huh-7, 72 h) was 0.64 nM. Besides, the “A->B permeability (Papp × 10^−6 cm/sec) in the presence the P-gp inhibitor GF120918” value in series [2] was 5.0 10^−6 cm/sec. In the case of `COC(=O)N[C@H](C(=O)N1CCC[C@H]1c1ncc(-c2ccc3cc(-c4ccc5c(=O)[nH]c([C@@H]6CCCN6C(=O)[C@@H](NC(=O)OC)C(C)C)nc5c4)ccc3c2)[nH]1)C(C)C` [Compound 44], the EC50 in series [1] (Hepatitis C virus, Huh-7, 72 h) stood at 0.005 nM. In series [2], the “A->B permeability (Papp × 10^−6 cm/sec) in the presence the P-gp inhibitor GF120918” value is recorded as 6.9 10^−6 cm/sec.
